This passage reports Ki and IC50 results from ChEMBL document CHEMBL1136071, “Synthesis and biological evaluation of hydroxamate-Based inhibitors of glutamate carboxypeptidase II” (Bioorg Med Chem Lett, 2003).

The structures appear in SMILES notation. pIC50, pKi: −log10 of the molar value.

The pKi is −log10 of the Ki, conventionally taken in molar units. Lower therefore signals a large Ki. For orientation: pIC50 means the negative decadic logarithm of the IC50, by convention in mol/L. Higher therefore signals a small IC50.

One test deals with Bacterial leucyl aminopeptidase (Vibrio proteolyticus, UniProt Q01693). The test is described as follows: Inhibition of metalloprotease from family M28, Aeromonas proteolytica aminopeptidase.
Chain of Bacterial leucyl aminopeptidase (Q01693 whole entry): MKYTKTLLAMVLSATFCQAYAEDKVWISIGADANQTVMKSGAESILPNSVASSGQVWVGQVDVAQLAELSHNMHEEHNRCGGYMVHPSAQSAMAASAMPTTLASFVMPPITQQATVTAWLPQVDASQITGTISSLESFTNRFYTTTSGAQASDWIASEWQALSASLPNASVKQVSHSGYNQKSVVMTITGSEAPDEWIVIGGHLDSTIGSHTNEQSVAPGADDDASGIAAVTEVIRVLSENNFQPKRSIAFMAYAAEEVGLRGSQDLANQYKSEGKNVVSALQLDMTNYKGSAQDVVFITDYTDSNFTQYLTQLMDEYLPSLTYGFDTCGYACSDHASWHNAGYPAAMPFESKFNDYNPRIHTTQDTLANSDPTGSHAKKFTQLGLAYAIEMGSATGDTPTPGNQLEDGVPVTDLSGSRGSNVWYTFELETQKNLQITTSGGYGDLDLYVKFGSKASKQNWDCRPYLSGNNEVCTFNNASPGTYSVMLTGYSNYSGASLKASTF
For `CC(C)C[C@H](N)C(=O)NO`, the pKi was 6.46. Compound `CC(C)C[C@@H](N)C(=O)NO` showed a pKi of 8.70.

The target of the next test is Glutamate carboxypeptidase 2 (Homo sapiens, UniProt Q04609). Kind of test: Inhibition of Glutamate carboxypeptidase II.
Chain of Glutamate carboxypeptidase 2 (Q04609 whole entry): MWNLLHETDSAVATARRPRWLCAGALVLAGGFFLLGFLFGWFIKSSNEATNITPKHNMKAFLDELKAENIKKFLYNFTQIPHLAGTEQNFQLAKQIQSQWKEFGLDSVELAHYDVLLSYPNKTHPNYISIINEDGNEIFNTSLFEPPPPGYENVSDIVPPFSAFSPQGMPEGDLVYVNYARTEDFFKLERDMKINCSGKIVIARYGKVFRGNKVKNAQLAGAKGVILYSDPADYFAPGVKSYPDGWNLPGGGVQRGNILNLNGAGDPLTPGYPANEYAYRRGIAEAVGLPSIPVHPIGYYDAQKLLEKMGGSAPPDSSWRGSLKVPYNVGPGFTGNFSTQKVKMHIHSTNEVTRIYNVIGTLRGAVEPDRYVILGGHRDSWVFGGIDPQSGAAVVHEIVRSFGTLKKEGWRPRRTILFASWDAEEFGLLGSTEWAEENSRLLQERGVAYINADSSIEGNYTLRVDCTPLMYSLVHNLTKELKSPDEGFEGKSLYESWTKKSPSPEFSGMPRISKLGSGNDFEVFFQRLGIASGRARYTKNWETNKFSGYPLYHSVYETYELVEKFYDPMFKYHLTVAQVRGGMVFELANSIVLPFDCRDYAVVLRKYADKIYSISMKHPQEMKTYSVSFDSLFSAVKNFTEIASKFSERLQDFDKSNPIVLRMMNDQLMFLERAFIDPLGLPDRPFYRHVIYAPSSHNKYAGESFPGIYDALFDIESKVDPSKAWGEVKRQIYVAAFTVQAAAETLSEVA
Take `CC(=O)N[C@H](CC(=O)O)C(=O)NO`: the pIC50 is below 4.00. The compound `N[C@H](CC(=O)NO)C(=O)O` showed a pIC50 below 4.00. The compound `O=C(O)CCC(CCCC(=O)NO)C(=O)O` (stereo not drawn) showed a pIC50 of 6.03. Consider `O=C(O)CCC(=O)NO`, for which the pIC50 was 4.37. Still for that read-out and setting: for `O=C(O)CCC(CCC(=O)NO)C(=O)O` (stereo not drawn) the value was 5.92; for `N[C@@H](CC(=O)NO)C(=O)O`, below 4.00.

The compound `O=C(O)CCC(CP(=O)(O)Cc1c(F)c(F)c(F)c(F)c1F)C(=O)O` (stereo not drawn) had a pIC50 of 7.09. Still for that read-out and setting: as for `O=C(O)CCC(CC(=O)NO)C(=O)O` (stereo not drawn), the figure is 6.66; as for `CC(=O)N[C@@H](CC(=O)O)C(=O)NO`, below 4.00. In turn, `O=C(O)CCC(CC(=O)O)C(=O)O` (stereo not drawn) had a pIC50 of 4.70.

`N[C@@H](CCC(=O)NO)C(=O)O` [GLUTAMINE HYDROXAMATE] showed a pIC50 below 4.00.
